Data reported in patent US7977352B2, “Triazolopyridine compounds useful for the treatment of degenerative and inflammatory diseases” (Galapagos NV, priority 2006, dated 2011).

Legend:
[1] = test system: MMP1 expression by activated synovial fibroblasts (RASFs); experiment: MMP assay: MMP1 expression by RASFs triggered with TNF-α (MMP1 ELISA); format: cell-based; details: TNF-α trigger 10 ng/mL, semi-quantitative score, read-out: REDUCTION MMP1/TNFa
How it was run: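 Primary RA synovial fibroblasts (passage 10–12, 3000 cells/well) were preincubated 90 min with compound in M199/1% FBS (0.2% DMSO), then triggered with TNF-α at 10 ng/mL final or 12.5% complex trigger for 48 h. MMP1 in supernatant was measured by sandwich chemiluminescent ELISA; untriggered and vehicle-triggered wells served as min/max controls.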

[2] = test system: MMP1 expression by activated synovial fibroblasts (RASFs); experiment: MMP assay: MMP1 expression by RASFs triggered with 'complex trigger' (supernatant of TNF-α-treated THP-1 cells); format: cell-based; details: 'complex trigger' 12.5%, MMP1 ELISA, semi-quantitative score, read-out: Reduction MMP1/THP1
Protocol: A 384-well format ELISA for measurement of MMP1 is developed. Various primary antibodies are tested, as well as various ELISA protocols. The following protocol is developed and validated to measure MMP1 levels in SF supernatant in 384 well plates: white Lumitrac 600 384 well plates (Greiner) are coated with 2 μg/mL anti-MMP1 antibody MAB1346 (Chemicon). The antibody is diluted in buffer 40 (1.21 g Tris base (Sigma), 0.58 g NaCl (Calbiochem) and 5 mL 10% NaN3 (Sigma) in 1 L milliQ water and adjusted to pH 8.5). After overnight incubation at 4° C., plates are washed with PBS (80 g NaCl, 2 g KCl (Sigma), 11.5 g Na2HPO4.7H2O and 2 g KH2PO4 in 10 L milliQ; pH 7.4) and blocked with 100 μL/well Casein buffer (2% Casein (VWR International) in PBS). Next day, casein buffer is removed from ELISA plates and replaced by 50 μL/well EC buffer (4 g casein, 2.13 g Na2HPO4 (Sigma), 2 g bovine albumin (Sigma), 0.69 g NaH2PO4.H2O (Sigma), 0.5 g CHAPS (Roche), 23.3 g NaCl, 4 mL 0.5 M EDTA pH 8 (Invitrogen), 5 mL 10% NaN3 in 1 L milliQ and adjusted to pH 7.0). 0.25 mM DTT (Sigma) is added to the thawed sample plates. After removal of the EC buffer, 20 μL of sample is transferred to the ELISA plates. After overnight incubation at 4° C. plates are washed twice with PBS and once with PBST (PBS with 0.05% Tween-20 (Sigma)) and incubated with 35 μL/well biotinylated anti-MMP1 antibody solution (R&D). This secondary antibody is diluted in buffer C (0.82 g NaH2PO4.H2O, 4.82 g Na2HPO4, 46.6 g NaCl, 20 g bovine albumin and 4 mL 0.5M EDTA pH 8 in 2 L milliQ and adjusted to pH 7.0) at a concentration of 5 μg/mL. After 2 h of incubation at RT, plates are washed as described above and incubated with 50 μL/well streptavidin-HRP conjugate (Biosource). Streptavidin-HRP conjugate is diluted in buffer C at a concentration of 0.25 μg/mL. After 45 min, plates are washed as described above and incubated for 5 min with 50 μL/well BM Chem ELISA Substrate (Roche). Readout is performed on the Luminoscan Ascent Luminometer (Labsystems) with an integration time of 200 msec or with an Envision reader (Perkin Elmer).
The increase of MMP1 expression by SFs upon treatment with cytokines relevant in the field of RA (TNF-α, IL1β and OSM) or a combination thereof is shown in FIG. 2 as white bars. For this experiment, SFs are seeded in 96 well plates, 3,000 cells/well. 24 h later, the medium is changed to M199 medium supplemented with 1% FBS. One day after the medium change, cytokines or combinations thereof are added to the cultures, each cytokine being added to a final concentration of 25 ng/mL. 72 h after cytokine addition, the supernatant is collected and processed in the MMP1 ELISA as described in the protocol given above. In parallel with this experiment, SFs are triggered, using the same protocol, with the supernatant of THP1 cells (2-fold diluted in M199+1% FBS) treated with the same cytokines or combinations of cytokines for 48 h in M199 medium+1% FBS. The induction of the MMP1 expression by SFs triggered with the supernatants of TNF-α-treated THP1 cells is stronger (>4.5 fold induction) as compared to the SFs triggered with recombinant TNF-α alone (3-fold induction) and almost equals the 5-fold induction obtained by a mixture of 3 purified cytokines (TNF-α, IL1βb, OSM). […] As the role of TNF-α in the RA pathogenesis is validated (TNF-α-blockers as Infliximab and Ethanercept show some efficacy in the treatment of RA patients) and the THP-1 cells are representative for monocytes/macrophages present in the joint of RA patients, the TNF-α-based trigger mixture prepared by contacting THP-1 cells with TNF-α will contain factors present in the joints of RA patients and subsequently is relevant to RA. This TNF-α-based complex trigger, further referred to as the ‘complex trigger’, will further be used as basis for the ‘MMP assay’. For preparing a stock of this ‘complex trigger’, THP-1 cells are used between passage 8 and 16. […]

O=C(NCc1cccnc1)c1ccc(Nc2ccc(-c3cn[nH]c3)n3ncnc23)cc1 [Example 3, 4-[5-(1H-Pyrazol-4-yl)-[1,2,4]triazolo[1,5-a]pyridin-8-ylamino]-N-pyridin-3-ylmethyl-benzamide]
IC50 ([1]; 48 hrs): 501 to 1000 nM | IC50 ([2]; 48 hrs): 1000 to 5000 nM

CN1CCN(c2ccc(Nc3ccc(-c4cc[nH]c(=O)c4)n4ncnc34)cc2)CC1 [Example 4, 4-{8-[4-(4-Methyl-piperazin-1-yl)-phenylamino]-[1,2,4]triazolo[1,5-a]pyridin-5-yl}-1H-pyridin-2-one]
IC50 ([1]; 48 hrs): 501 to 1000 nM | IC50 ([2]; 48 hrs): 1000 to 5000 nM

CN1CCN(c2ccc(Nc3ccc(-c4cn[nH]c4)n4ncnc34)cc2)CC1 [Example 2, [4-(4-Methyl-piperazin-1-yl)-phenyl]-[5-(1H-pyrazol-4-yl)-[1,2,4]triazolo[1,5-a]pyridin-8-yl]-amine]
IC50 ([1]; Fibroblast, 48 h): 501 to 1000 nM | IC50 ([2]; Homo sapiens, THP-1, 48 h): 5000 to 10000 nM

O=C(NCc1cccnc1)c1ccc(Nc2ccc(-c3cc[nH]c(=O)c3)n3ncnc23)cc1 [Example 41, 4-{[5-(2-oxo-1,2-dihydropyridin-4-yl)[1,2,4]triazolo[1,5-a]pyridin-8-yl]amino}-N-(pyridin-3-ylmethyl)benzamide]
IC50 ([1]; Fibroblast, 48 h): 1000 to 5000 nM | IC50 ([2]; Homo sapiens, THP-1, 48 h): > 10000 nM

Cc1[nH]ncc1-c1ccc(Nc2ccc(N3CCOCC3)cc2)c2ncnn12 [Example 39, 5-(5-methyl-1H-pyrazol-4-yl)-N-(4-morpholin-4-ylphenyl)[1,2,4]triazolo[1,5-a]pyridin-8-amine]
IC50 ([1]; 48 hrs): 5000 to 10000 nM | IC50 ([2]; Homo sapiens, THP-1, 48 h): > 10000 nM

c1nc2c(Nc3ccc(N4CCOCC4)cc3)ccc(-c3cn[nH]c3)n2n1 [Example 7, (4-Morpholin-4-yl-phenyl)-[5-(1H-pyrazol-4-yl)-[1,2,4]triazolo[1,5-a]pyridin-8-yl]-amine]
IC50 ([1]; Fibroblast, 48 h): 501 to 1000 nM | IC50 ([2]; Homo sapiens, THP-1, 48 h): 5000 to 10000 nM

CN1CCN(c2ccc(Nc3ccc(-c4cn[nH]c4)n4ncnc34)cc2)CC1 [Example 36, N-[4-(4-methylpiperazin-1-yl)phenyl]-5-(1H-pyrazol-4-yl)[1,2,4]triazolo[1,5-a]pyridin-8-amine]
IC50 ([1]; 48 hrs): 1000 to 5000 nM | IC50 ([2]; 48 hrs): > 10000 nM

NC(=O)c1ccc(-c2ccc(Nc3ccc(N4CCOCC4)cc3)c3ncnn23)cc1 [Example 1, 4-[8-(4-Morpholin-4-yl-phenylamino)-[1,2,4]triazolo[1,5-a]pyridin-5-yl]-benzamide]
IC50 ([1]; Fibroblast, 48 h): 501 to 1000 nM | IC50 ([2]; Homo sapiens, THP-1, 48 h): > 10000 nM

CN1CCN(c2ccc(Nc3ccc(-c4cc[nH]c(=O)c4)n4ncnc34)cc2)CC1 [Example 40, 4-(8-{[4-(4-methylpiperazin-1-yl)phenyl]amino}[1,2,4]triazolo[1,5-a]pyridin-5-yl)pyridin-2(1H)-one]
IC50 ([1]; Fibroblast, 48 h): 1000 to 5000 nM | IC50 ([2]; Homo sapiens, THP-1, 48 h): 1000 to 5000 nM

CN1CCN(c2ccc(Nc3ccc(-c4ccc(C(N)=O)c(F)c4)n4ncnc34)cc2)CC1 [Example 42, 2-fluoro-4-(8-{[4-(4-methylpiperazin-1-yl)phenyl]amino}[1,2,4]triazolo[1,5-a]pyridin-5-yl)benzamide]
IC50 ([1]; Fibroblast, 48 h): 501 to 1000 nM | IC50 ([2]; Homo sapiens, THP-1, 48 h): > 10000 nM

O=C(NCc1cccnc1)c1ccc(Nc2ccc(-c3cn[nH]c3)n3ncnc23)cc1 [Example 37, 4-{[5-(1H-pyrazol-4-yl)[1,2,4]triazolo[1,5-a]pyridin-8-yl]amino}-N-(pyridin-3-ylmethyl)benzamide]
IC50 ([1]; Fibroblast, 48 h): < 500 nM | IC50 ([2]; Homo sapiens, THP-1, 48 h): 1000 to 5000 nM

O=C(NCc1cccnc1)c1ccc(Nc2ccc(-c3cc[nH]c(=O)c3)n3ncnc23)cc1 [Example 5, 4-[5-(2-oxo-1,2-dihydro-pyridin-4-yl)-[1,2,4]triazolo[1,5-a]pyridin-8-ylamino]-N-pyridin-3-ylmethyl-benzamide]
IC50 ([1]; 48 hrs): 501 to 1000 nM | IC50 ([2]; 48 hrs): > 10000 nM

Cc1[nH]ncc1-c1ccc(Nc2ccc(N3CCOCC3)cc2)c2ncnn12 [Example 8, [5-(5-Methyl-1H-pyrazol-4-yl)-[1,2,4]triazolo[1,5-a]pyridin-8-yl]-(4-morpholin-4-yl-phenyl)-amine]
IC50 ([1]; 48 hrs): 1000 to 5000 nM | IC50 ([2]; 48 hrs): 5000 to 10000 nM
